Data as given in patent US7674823B2, “DNA-PK inhibitors” (Cancer Research Technology Limited, priority 2001, dated 2010).

molecular target: T1, Mammalian DNA-PK, isolated from Hela cell nuclear extract (Homo sapiens, UniProt P78527); test: DNA-PK inhibition assay (33P-ATP, filter binding); assay type: biochemical; conditions: not given
T1 construct: Mammalian DNA-PK, isolated from Hela cell nuclear extract; endogenous in cells; host or cells: HeLa cell nuclear extract (purified per Gell and Jackson 1999)
Protocol: In order to assess the inhibitory action of the compounds against DNA-PK in vitro, the following assay was used to determine IC50 values.
The total assay volume per well was 40 μl.
After 10 minutes of incubation at 30° C. the reactions were initiated by the addition of Na-ATP (50 μM final), ^33p-γATP and a 30mer double stranded DNA oligonucleotide (10 ng/μl) in a volume of 10 μl. Designated positive and negative reaction wells were done in combination with compound wells (unknowns) in order to calculate % enzyme activities. The plates were then shaken for 2 minutes and incubated at 30° C. for 45 minutes.
Following the incubation, the reactions were quenched by the addition of 50 μl 30% acetic acid to each well. The plates were then shaken for 5 minutes and the contents of each plate (80 μl from each well) transferred over to a 96 well Polyfiltronics filtration plate, containing P81-phosphocellulose membrane (TRADE MARK)(Whatman, UK). The solutions were vacuum pumped through the membrane and each well membrane washed four times using 300 μl of 15% acetic acid. The well membranes were then air dried and 20 μl of scintillant was added to each well.
The plates were transferred to a TopCount NXT (TRADE MARK) (Packard, UK) for scintillation counting. Values recorded are counts per minute (cpm) following a 1 minute counting time for each well.
The enzyme activity for each compound is then calculated using the following equation: […]
These are determined over a range of different concentrations, normally from 10 μM down to 0.01 μM. Such IC50 values are used as comparative values to identify increased compound potencies.

Structure (SMILES)	IC50 [nM]
O=C(NC1CN2CCC1CC2)c1ccc(-c2cc(=O)cc(N3CCOCC3)o2)cc1 (centres unmarked) [Compound 206]	< 1000

same assay, conditions: IC50 of less than about 1 μM and/or % inhibition of more than about 50 at 1 μM; read-out: DNA-PK inhibition IC50 (particular efficacy)

IC50 [nM]	Structure (SMILES)
< 1000	O=c1cc(-c2ccc3c(c2)CCO3)oc(N2CCOCC2)c1 [Compound 59]
< 1000	O=c1cc(-c2ccc3c(c2)OCCO3)oc(N2CCOCC2)c1 [Compound 60]
< 1000	O=c1cc(-c2cccc3ccsc23)oc(N2CCOCC2)c1 [Compound 72]
< 1000	N#CCNC(=O)c1cccc(-c2cc(=O)cc(N3CCOCC3)o2)c1 [Compound 73]
< 1000	O=C(NC1CC1)c1cccc(-c2cc(=O)cc(N3CCOCC3)o2)c1 [Compound 74]
< 1000	O=C(NCc1cccc(C(F)(F)F)c1)c1cccc(-c2cc(=O)cc(N3CCOCC3)o2)c1 [Compound 99]
< 1000	Nc1cccc(CNC(=O)c2cccc(-c3cc(=O)cc(N4CCOCC4)o3)c2)c1 [Compound 104]
< 1000	CN(C)c1ccc(CNC(=O)c2cccc(-c3cc(=O)cc(N4CCOCC4)o3)c2)cc1 [Compound 105]
< 1000	CN(C)CCN(Cc1ccccc1)C(=O)c1cccc(-c2cc(=O)cc(N3CCOCC3)o2)c1 [Compound 106]
< 1000	NCc1cccc(CNC(=O)c2cccc(-c3cc(=O)cc(N4CCOCC4)o3)c2)c1 [Compound 107]
< 1000	O=C(NC1CCC(O)CC1)c1cccc(-c2cc(=O)cc(N3CCOCC3)o2)c1 (centres unmarked) [Compound 114]
< 1000	CCN(CC)CCCNC(=O)c1cccc(-c2cc(=O)cc(N3CCOCC3)o2)c1 [Compound 118]
< 1000	O=C(CNC(=O)c1cccc(-c2cc(=O)cc(N3CCOCC3)o2)c1)c1cccc([N+](=O)[O-])c1 [Compound 123]
< 1000	COCCCNC(=O)c1cccc(-c2cc(=O)cc(N3CCOCC3)o2)c1 [Compound 125]
< 1000	O=C(NCCOc1ccccc1)c1cccc(-c2cc(=O)cc(N3CCOCC3)o2)c1 [Compound 126]
< 1000	COCCNC(=O)c1cccc(-c2cc(=O)cc(N3CCOCC3)o2)c1 [Compound 127]
< 1000	O=C(NCc1cccs1)c1cccc(-c2cc(=O)cc(N3CCOCC3)o2)c1 [Compound 131]
< 1000	O=C(c1cccc(-c2cc(=O)cc(N3CCOCC3)o2)c1)N1CCOCC1 [Compound 139]
< 1000	O=C(c1cccc(-c2cc(=O)cc(N3CCOCC3)o2)c1)N1CCCC(CO)C1 (centres unmarked) [Compound 140]
< 1000	O=C(c1cccc(-c2cc(=O)cc(N3CCOCC3)o2)c1)N1CCN(C/C=C/c2ccccc2)CC1 [Compound 143]
< 1000	O=C(NN1CCOCC1)c1cccc(-c2cc(=O)cc(N3CCOCC3)o2)c1 [Compound 146]

IC50 [nM]	Structure (SMILES)
< 1000	Cc1ccccc1CNC(=O)c1ccc(-c2cc(=O)cc(N3CCOCC3)o2)cc1 [Compound 163]
< 1000	O=C(c1ccc(-c2cc(=O)cc(N3CCOCC3)o2)cc1)N(Cc1ccccc1)Cc1ccccc1 [Compound 166]
< 1000	COc1ccc(CCNC(=O)c2ccc(-c3cc(=O)cc(N4CCOCC4)o3)cc2)cc1 [Compound 167]
< 1000	O=C(NCc1cccc(F)c1)c1ccc(-c2cc(=O)cc(N3CCOCC3)o2)cc1 [Compound 169]
< 1000	O=C(NCCCc1ccccc1)c1ccc(-c2cc(=O)cc(N3CCOCC3)o2)cc1 [Compound 170]
< 1000	CC(CNC(=O)c1ccc(-c2cc(=O)cc(N3CCOCC3)o2)cc1)c1ccc(Cl)cc1 (centres unmarked) [Compound 173]
< 1000	O=C(NCc1ccc(OC(F)(F)F)cc1)c1ccc(-c2cc(=O)cc(N3CCOCC3)o2)cc1 [Compound 175]
< 1000	O=C(NCc1cc(C(F)(F)F)cc(C(F)(F)F)c1)c1ccc(-c2cc(=O)cc(N3CCOCC3)o2)cc1 [Compound 176]
< 1000	O=C(NCc1cccc(C(F)(F)F)c1)c1ccc(-c2cc(=O)cc(N3CCOCC3)o2)cc1 [Compound 178]
< 1000	O=C(NCc1cc(F)cc(C(F)(F)F)c1)c1ccc(-c2cc(=O)cc(N3CCOCC3)o2)cc1 [Compound 179]
< 1000	Nc1cccc(CNC(=O)c2ccc(-c3cc(=O)cc(N4CCOCC4)o3)cc2)c1 [Compound 182]
< 1000	O=C(NCCSCc1c(F)cccc1Cl)c1ccc(-c2cc(=O)cc(N3CCOCC3)o2)cc1 [Compound 187]
< 1000	O=C(NC(CO)CO)c1ccc(-c2cc(=O)cc(N3CCOCC3)o2)cc1 [Compound 190]
< 1000	CSCCC(CO)NC(=O)c1ccc(-c2cc(=O)cc(N3CCOCC3)o2)cc1 (centres unmarked) [Compound 192]
< 1000	CC(C)(C)OC(=O)CNC(=O)c1ccc(-c2cc(=O)cc(N3CCOCC3)o2)cc1 [Compound 194]
< 1000	COCC(Cc1ccccc1)NC(=O)c1ccc(-c2cc(=O)cc(N3CCOCC3)o2)cc1 (centres unmarked) [Compound 200]
< 1000	O=C(NCCOc1ccccc1)c1ccc(-c2cc(=O)cc(N3CCOCC3)o2)cc1 [Compound 202]
< 1000	O=C(NCCCNC(=O)c1ccc(-c2cc(=O)cc(N3CCOCC3)o2)cc1)OCc1ccccc1 [Compound 203]
< 1000	O=C(NC1CCN(Cc2ccccc2)CC1)c1ccc(-c2cc(=O)cc(N3CCOCC3)o2)cc1 [Compound 205]
< 1000	O=C(NCc1ccco1)c1ccc(-c2cc(=O)cc(N3CCOCC3)o2)cc1 [Compound 211]
< 1000	O=C(NCc1ccccn1)c1ccc(-c2cc(=O)cc(N3CCOCC3)o2)cc1 [Compound 214]

IC50 [nM]	Structure (SMILES)
< 1000	CCOC(=O)C1CCCN(C(=O)c2ccc(-c3cc(=O)cc(N4CCOCC4)o3)cc2)C1 (centres unmarked) [Compound 215]
< 1000	COC(=O)C(NCc1ccc(-c2cc(=O)cc(N3CCOCC3)o2)cc1)c1ccccc1 (centres unmarked) [Compound 247]
< 1000	O=c1cc(-c2ccc(CNCc3cccc(F)c3)cc2)oc(N2CCOCC2)c1 [Compound 249]
< 1000	O=c1cc(-c2ccc(CNCc3ccc(OC(F)(F)F)cc3)cc2)oc(N2CCOCC2)c1 [Compound 252]
< 1000	COc1cccc(CNCc2ccc(-c3cc(=O)cc(N4CCOCC4)o3)cc2)c1OC [Compound 253]
< 1000	Nc1ccccc1CNCc1ccc(-c2cc(=O)cc(N3CCOCC3)o2)cc1 [Compound 255]
< 1000	O=c1cc(-c2ccc(CN3Cc4cccc5cccc(c45)C3)cc2)oc(N2CCOCC2)c1 [Compound 258]
< 1000	O=c1cc(-c2ccc(CN3CCc4ccccc4C3)cc2)oc(N2CCOCC2)c1 [Compound 260]
< 1000	CC(=O)OC(C)C(=O)Nc1ccc(-c2cc(=O)cc(N3CCOCC3)o2)cc1 (centres unmarked) [Compound 267]
< 1000	CC(O)C(=O)Nc1ccc(-c2cc(=O)cc(N3CCOCC3)o2)cc1 (centres unmarked) [Compound 268]
< 1000	CCOC(=O)CC(=O)Nc1ccc(-c2cc(=O)cc(N3CCOCC3)o2)cc1 [Compound 269]
< 1000	O=C(CSc1ccccc1)Nc1ccc(-c2cc(=O)cc(N3CCOCC3)o2)cc1 [Compound 270]
< 1000	O=C(Cc1cccs1)Nc1ccc(-c2cc(=O)cc(N3CCOCC3)o2)cc1 [Compound 271]
< 1000	O=C(Nc1ccc(-c2cc(=O)cc(N3CCOCC3)o2)cc1)C1CCCN1C(=O)C(F)(F)F (centres unmarked) [Compound 279]
< 1000	O=c1cc(N2CCC(CO)CC2)oc2c1ccc1ccccc12 [Compound 318, 2-(4-Hydroxymethyl-piperidin-1-yl)-benzo[h]chromen-4-one]
< 1000	N#Cc1ccc(COc2ccc3c(=O)cc(N4CCOCC4)oc3c2)cc1 [Compound 338, 7-(4-cyano-benzyloxy)-2-morpholin-4-yl-chromen-4-one]
< 1000	COC(=O)c1ccc(COc2ccc3c(=O)cc(N4CCOCC4)oc3c2)cc1 [Compound 339, Methyl 4-(2-(morpholin-4-yl)-4-oxo-4H-chromen-7-yloxymethyl)-benzoate]
< 1000	COC(=O)c1cccc(COc2ccc3c(=O)cc(N4CCOCC4)oc3c2)c1 [Compound 340, Methyl 3-(2-(morpholin-4-yl)-4-oxo-4H-chromen-7-yloxymethyl)-benzoate]
< 1000	O=c1cc(N2CCOCC2)oc2cc(OCc3cccc(Cl)c3)ccc12 [Compound 341, 7-(3-Chlorobenzyloxy)-2-(morpholin-4-yl)-chromen-4-one]

same assay, conditions: concentration at which 50% of the enzyme activity is inhibited; read-out: DNA-PK Inhibition IC50

IC50 [nM]	Structure (SMILES)
10000	O=c1cc(N2CCCC2)oc2c1ccc1ccccc12 [Compound 312, 2-pyrrolidin-1-yl-benzo[h]chromen-4-one]
20000	O=c1cc(N2CCSC2)oc2c1ccc1ccccc12 [Compound 330, 2-(Thiazolidin-3-yl)-benzo[h]chromen-4-one]
950	N#Cc1ccc(COc2ccc3c(=O)cc(N4CCOCC4)oc3c2)cc1 [Compound 338, 7-(4-cyano-benzyloxy)-2-morpholin-4-yl-chromen-4-one]
650	O=c1cc(N2CCOCC2)oc2cc(OCc3cccc(Cl)c3)ccc12 [Compound 341, 7-(3-Chlorobenzyloxy)-2-(morpholin-4-yl)-chromen-4-one]
800	Cc1cccc(COc2ccc3c(=O)cc(N4CCOCC4)oc3c2)c1 [Compound 342, 7-(3-Methylbenzyloxy)-2-(morpholin-4-yl)-chromen-4-one]

same assay, conditions: read-out: DNA-PK Inhibition IC50

Structure (SMILES)	IC50 [nM]
O=c1cc(N2CC[C@H](O)C2)nc2c3ccccc3ccn12 [Compound 12, 2-((S)-3-Hydroxy-pyrrolin-1-yl)-pyrimido[2,1-a]isoquinolin-4-one]	10500
